This note sets out measurements from paper PMC10302187, “WssI from the Gram-negative bacterial cellulose synthase is an O-acetyltransferase that acts on cello-oligomers with several acetyl donor substrates” (The Journal of Biological Chemistry, 2023).

Data set [1] addresses T1, AiWssI^ΔN (Achromobacter insuavis, UniProt A0A6J5I893). As to the kind of experiment: Follow-up standard MU-Ac esterase assay (dose-response). The following applies: for IC50: MU-Ac (0.5 mM) as esterase substrate, read-out: Second MU-Ac IC50; for Ki: MU-Ac as esterase substrate, Cheng-Prusoff, competitive inhibition, read-out: Second MU-Ac Ki. Type of data set: biochemical. On the procedure: (§1) The fluorescence substrate, MU-Ac, was also tested as a substrate of WssI^ΔN for its amenability to the planned high-throughput analyses (see later). Reaction setups were exactly the same as that for pNP-Ac, with the exceptions of the assay buffer (50 mM sodium phosphate, 150 mM NaCl, 1 mM DTT, pH 7), MU-Ac as the acetyl donor (final concentration of 0.5 mM along with 5% [v/v] dimethyl sulfoxide, as this was the solvent for MU-Ac), and the assay was performed in fluorescence compatible microplates (Grenier BioOne) and monitored with excitation and emission wavelengths of 365 and 450 nm, respectively for 60 min.
(§2) All inhibitor compounds for confirmatory assays were purchased from Enamine Ltd, with the exception of compound 1 (Santa Cruz Biotechnology, Inc), Compounds 2 and 7 (Molport via Maybridge Ltd and Vitas M Chemical Ltd, respectively) and compound 6 (Mcule, Inc). The dose–response curves were generated using either CDD Vault Analysis Software (Collaborative Drug Discovery, Inc) or GraphPad Prism, version 8.4.3. Inhibition constants (Ki) were calculated using the Cheng–Prusoff equation for competitive inhibition that is calculated using the KM of the uninhibited enzyme, the substrate concentration (S) at which the IC50 values were calculated, and the IC50 value of the inhibitor ([92]): Ki=IC50/(S/KM+1)

Data set [2] has as its target T1, AiWssI^ΔN. Kind of data set: HTS MU-Ac fluorescence esterase dose-response assay. The note with it: MU-Ac as esterase substrate. Type of data set: biochemical. On the procedure:
Large-scale HTS was conducted at the SPARC BioCentre Drug Discovery (Hospital for Sick Children, Toronto, Canada) with a subset of the Chembridge DIVERset library collection (as well as 135 manually selected compounds based on success against other SGNH enzymes) in a 384-well format. The assay was performed in singlet during the primary screen of the entire compound list and in triplicate for a follow-up confirmatory screen. Reaction setups for both screens were conducted with 50 mM sodium phosphate buffer (pH 6.5), 3 μM AiWssI^ΔN and 0.5 mM MU-Ac (final concentration of 5% [v/v] dimethyl sulfoxide) using a Thermo MultiDrop Combi Reagent Dispenser. The reaction was initiated by the addition of 20 μM of the test compounds using an Echo 550 acoustic dispenser (Labcyte). Fluorescence was monitored with a SynergyNeo microplate reader (BioTek) using excitation and emission wavelengths of 365 and 450 nm, respectively, for approximately 45 min alongside appropriate negative and positive controls. […] The hits remaining after the primary and confirmatory screening were examined further to identify possible PAINS, which could result in false-positive results ([91]). Further refinement of the lead candidates was also conducted by assessing the fluorescence quenching potential of lead compound hits by assaying the quenching potential of different compound concentrations (10.1 μM and/or 50.5 μM) against the fluorescence of 4-methylumbeliferone (247 μM) to reveal any potential false positives that were not actually because of AiWssI^ΔN activity. All fluorescence readings were normalized using the following equation to determine the percentage of quenching ([92]): NormalizedFlouresence=Fobs−μFmin/μFmax−μFminx100% In the aforementioned formula, Fobs is the sample fluorescence value, μFmin is the mean fluorescence value of the negative controls, and μFmax is the mean fluorescence value of the positive controls.
as §2

Data set [3] has as its target T1, AiWssI^ΔN. Kind of data set: pNP-Ac cleavage in the presence of oligosaccharide acceptors. Type of data set: biochemical. The following applies: 1 mM oligosaccharide, 6 mM pNP-Ac, 2 μM enzyme; for Specific activity of AiWssI^ΔN with acceptor relative to no acceptor control: t test; for Increase in AiWssI^ΔN activity versus reaction without celloacceptors: 30 min, 23 °C. The procedure: Acetyltransfer by WssI was performed under the same esterase assay protocol outlined previously, but with the addition of cellulose or chitin oligosaccharides (1 mM) as the acceptor in the presence of either pNP-Ac (6 mM) or acetyl-CoA (4 mM) as the acetyl donor ([…]). Assessment of acetyltransfer was first monitored indirectly (absorbance at 405 nm wavelength) by observing differences in pNP liberation rates in the presence and absence of the polysaccharide acceptors. Later to confirm the acetylated products, reactions performed with pNP-Ac and acceptor polysaccharides were subjected to solid-phase extraction of the carbohydrate reaction products followed by detection with MS (as outlined later). Reactions utilizing acetyl-CoA as the donor were subjected to LC–MS analyses. All model fitting and statistical analyses were performed using GraphPad Prism, version 8.4.3.

Data set [4] concerns CC(=O)Oc1ccc([N+](=O)[O-])cc1. As to the kind of experiment: O-acetylesterase Michaelis-Menten kinetics. The note with it: other: AiWssI^ΔN, acetyl donor substrate, pH 7. Type of data set: biochemical, Achromobacter insuavis. On the procedure: (§3) The enzymatic rate of the WssI^ΔN proteins was measured using chromogenic assays in a 50 mM sodium phosphate-buffered (pH 7) solution, with WssI^ΔN (3 μM unless specified otherwise) and were initiated by the addition of pNP-Ac to a final concentration of 6 mM (dissolved in 5% [v/v] ethanol). Assay samples and corresponding controls (i.e., containing no WssI^ΔN and/or substrate) were run in quadruplicate, and the progress of the reaction was monitored at 405 nm (Cytation5) for 30 min in 1 min intervals following a 5 s initial linear shake to mix contents thoroughly. These conditions were deemed standard assay conditions for subsequent trials except where modifications are noted. The activity assay to determine optimal pH and buffer type was performed with 2-(N-morpholino)ethanesulfonic acid over pH ranges of 5.5 to 6.5, sodium phosphate for pH 6.5 to 7.5, and Tris for the final range of 7.5 to 9.25. In addition, standard assay conditions were modified by incorporating various inhibitors and common reducing agents to determine effects on WssI^ΔN activity. […] To test the effects of the absence of DTT, trials were conducted where DTT was removed from all purification and dialysis buffers, unless mentioned otherwise. Data are either reported in specific activity as units of esterase activity (i.e., the amount of enzyme required to release 1 μmol of p-nitrophenol per min^−1 per mg of protein^−1) or as percent residual activity when compared with the WssI^ΔN controls (i.e., containing no inhibitors).
as §1
(§4) Kinetic assays were performed using the same standard assay conditions for esterase reactions outlined previously, but with acetyl donor pNP-Ac concentrations ranging from 0 to 10 mM and MU-Ac concentrations between 0 and 8 mM. Michaelis–Menten parameters, such as KM and kcat, were calculated from the kinetic curves according to a nonlinear regression analysis of plots of initial velocity as a function of pNP-Ac or MU-Ac concentration using GraphPad Prism, version 8.4.3 (GraphPad Sofware, Inc).

Data set [5] has as its system CC(=O)Oc1ccc2c(C)cc(=O)oc2c1. As to the kind of experiment: O-acetylesterase Michaelis-Menten kinetics. Type of data set: biochemical, Achromobacter insuavis. The note with it: other: AiWssI^ΔN, acetyl donor substrate, pH 7. On the procedure: as §3, §1, §4
Substrate in data set [6]: CC(=O)Oc1ccc([N+](=O)[O-])cc1
As to the kind of experiment: O-acetylesterase Michaelis-Menten kinetics. The note with it: other: PfWssI^ΔN, acetyl donor substrate, pH 7. The format is biochemical, Pseudomonas fluorescens. On the procedure:
as §3, §1, §4

Substrate in data set [7]: CC(=O)Oc1ccc2c(C)cc(=O)oc2c1
Kind of data set: O-acetylesterase Michaelis-Menten kinetics. Type of data set: biochemical, Pseudomonas fluorescens. The following applies: other: PfWssI^ΔN, acetyl donor substrate, pH 7. On the procedure:
as §3, §1, §4

T1 sequence (A0A6J5I893 entry or part of it, stated change not applied): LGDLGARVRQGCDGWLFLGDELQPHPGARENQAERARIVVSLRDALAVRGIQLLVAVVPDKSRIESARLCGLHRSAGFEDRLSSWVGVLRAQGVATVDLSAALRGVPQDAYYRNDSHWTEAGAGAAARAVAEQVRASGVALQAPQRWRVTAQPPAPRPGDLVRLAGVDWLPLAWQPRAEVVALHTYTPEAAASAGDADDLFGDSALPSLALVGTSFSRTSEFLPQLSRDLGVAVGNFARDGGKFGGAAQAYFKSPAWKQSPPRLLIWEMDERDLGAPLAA

On to `CCOC(=O)NC(=O)/C(C#N)=C/c1ccc(N(C)C)cc1` [Compound 2, Ethyl N-[(2E)-2-cyano-2-{[4-(dimethylamino)-phenyl]methylidene}acetyl]carbamate], for which, at AiWssI^ΔN [1], the IC50 is 22.6 µM and the inhibition constant (Ki) was determined as 12 µM. Further, the IC50 at AiWssI^ΔN [2] worked out at 60.2 µM.
For `Cn1cccc1/C=C(/C#N)c1nnc(-c2ccccc2)n1C` [Compound 3, (2Z)-3-(1-Methyl-1H-pyrrol-2-yl)-2-(4-methyl-5-phenyl-4H-1,2,4-triazol-3-yl)-prop-2-enenitrile] the same measures were 41.4 µM, 22.1 µM and 85.3 µM.
`CN1CCN(c2ccc(NC(=O)c3cc4sc(Nc5ccccc5)nc4s3)cn2)CC1` [Compound 4, N-[6-(4-Methylpiperazin-1-yl)pyridin-3-yl]-2-(phenylamino)thieno[2,3-days][1,3]thiazole-5-carboxamide]: at AiWssI^ΔN [2], the IC50 was found to be 55.3 µM.
Consider `O=C1NC(=O)c2ccccc2/C1=C\C=Cc1ccco1` [Compound 5, (4E)-4-[3-(Furan-2-yl)prop-2-en-1-ylidene]-1,2,3,4-tetrahydroisoquino-line-1,3-dione], for which, on AiWssI^ΔN [2], the concentration for half-maximal inhibition (IC50) is 51.9 µM.
For the molecule `CN1/C(=C/C(=O)Cn2cc(S(=O)(=O)N3CCCC3)ccc2=O)C(C)(C)c2ccccc21` [Compound 6, 1-{2-Oxo-3-[(2E)-1,3,3-trimethyl-2,3-dihydro-1H-indol-2-ylidene]propyl}-5-(pyrrolidine-1-sulfonyl)-1,2-dihydropyridin-2-one], the 50% inhibitory concentration (IC50) on AiWssI^ΔN [2] amounted to 71.9 µM.
Same read-out and setting: then `CC(=O)Nc1ccc(S(=O)(=O)Nc2ccc([N+](=O)[O-])cc2)cc1` [Compound 7, N-{4-[(4-Nitrophenyl)sulfamoyl]phenyl}acetamide], with 100 µM; and `Cc1nc(N2CCCCC2)sc1/C=N/Nc1ccc(C(=O)O)cc1` [Compound 8, 4-[(2E)-2-{[4-Methyl-2-(piperidin-1-yl)-1,3-thiazol-5-yl]methylidene}hydrazin-1-yl]benzoic acid], with 90.3 µM.
As for `O=C[C@H](O)[C@@H](O)[C@H](O[C@@H]1O[C@H](CO)[C@@H](O)[C@H](O)[C@H]1O)[C@H](O)CO` [cellobiose], the “Specific activity of AiWssI^ΔN with acceptor relative to no acceptor control” value at AiWssI^ΔN [3] was “Significant increases in activity”.
Consider `OC[C@H]1O[C@@H](O[C@H]2[C@H](O)[C@@H](O)[C@H](O[C@H]3[C@H](O)[C@@H](O)[C@H](O[C@H]4[C@H](O)[C@@H](O)[C@H](O[C@H]5[C@H](O)[C@@H](O)[C@H](O[C@H]6[C@H](O)[C@@H](O)C(O)O[C@@H]6CO)O[C@@H]5CO)O[C@@H]4CO)O[C@@H]3CO)O[C@@H]2CO)[C@H](O)[C@@H](O)[C@@H]1O` (stereo partly drawn) [cellohexaose], for which, on AiWssI^ΔN [3], the “Increase in AiWssI^ΔN activity versus reaction without celloacceptors” value was found to be 31% and the “Specific activity of AiWssI^ΔN with acceptor relative to no acceptor control” value is “Significant increases in activity”.
Turning to `OC[C@H]1O[C@@H](O[C@H]2[C@H](O)[C@@H](O)[C@H](O[C@H]3[C@H](O)[C@@H](O)[C@H](O[C@H]4[C@H](O)[C@@H](O)[C@H](O[C@H]5[C@H](O)[C@@H](O)C(O)O[C@@H]5CO)O[C@@H]4CO)O[C@@H]3CO)O[C@@H]2CO)[C@H](O)[C@@H](O)[C@@H]1O` (stereo partly drawn) [cellopentaose], on AiWssI^ΔN [3], the “Increase in AiWssI^ΔN activity versus reaction without celloacceptors” value turned out to be 28% and the “Specific activity of AiWssI^ΔN with acceptor relative to no acceptor control” value is given as “Significant increases in activity”.
On to `OC[C@H]1O[C@@H](O[C@H]2[C@H](O)[C@@H](O)[C@H](O[C@H]3[C@H](O)[C@@H](O)[C@H](O[C@H]4[C@H](O)[C@@H](O)C(O)O[C@@H]4CO)O[C@@H]3CO)O[C@@H]2CO)[C@H](O)[C@@H](O)[C@@H]1O` (stereo partly drawn) [cellotetraose], for which, at AiWssI^ΔN [3], the “Specific activity of AiWssI^ΔN with acceptor relative to no acceptor control” value is given as “Significant increases in activity”.
For the molecule `OC[C@H]1O[C@@H](O[C@H]2[C@H](O)[C@@H](O)[C@H](O[C@H]3[C@H](O)[C@@H](O)C(O)O[C@@H]3CO)O[C@@H]2CO)[C@H](O)[C@@H](O)[C@@H]1O` (stereo partly drawn) [cellotriose], on AiWssI^ΔN [3], the “Specific activity of AiWssI^ΔN with acceptor relative to no acceptor control” value is “Significant increases in activity”.
In the case of AiWssI^ΔN (Achromobacter insuavis), in data set [4], the Km is 3850 ± 1070 µM, the catalytic constant (kcat) was determined as 0.031 ± 0.0035 s⁻¹ and the kcat/Km came to 8 M⁻¹ s⁻¹. Also, in data set [5], the Km worked out at 570 ± 240 µM, the kcat stood at 0.00258 ± 0.00028 s⁻¹ and the kcat/Km came out at 4.5 M⁻¹ s⁻¹.

B1: PfWssI^ΔN (Pseudomonas fluorescens) (protein)
chain: GDTGPRVRPGCPGWLFISDELRINRHAEANAQTKAQAVIDLQKQLGQKGIDLQVVVVPDKSRIAAAQRCGLYRPAVLDNRVRDWTAMLQAAGVSALDLTETLKPLGAEAYLRTDTHWSEIGSNAGAKAVAQRTQQRGIKATPEQTFDITQAPLAVRPGDLVRLAGLDWLPPTLQPPGESVAASTTHETGGATSNADDLFGDAGLPNVALIGTSFSRNSNFVGFLQKALNAPVGNFSKDGGEFSGAAKAYFDSPAFKQTPPKLLIWEIPERDLQTPYDVITIGQ
As to B1, in data set [6], the Km stood at 2410 ± 770 µM, the kcat turned out to be 0.0312 ± 0.0034 s⁻¹ and the kcat/Km amounted to 13 M⁻¹ s⁻¹. Further, in data set [7], the Km stood at 340 ± 100 µM, the catalytic constant (kcat) stood at 0.00162 ± 0.00016 s⁻¹ and the kcat/Km was 4.8 M⁻¹ s⁻¹.
